Among the data in a melting point compilation (Tetko et al.; mined from patent text by program, amines drawn as free bases though some values may be those of a salt) are melting point values, retold here.

For orientation: melting point means the temperature, or range, at which the solid turns liquid.

The structures appear in SMILES notation.

On to `CC(C)OC(=O)N1CCC(NC(=O)N2CCn3c(c(C(N)=O)c(C#N)c3-c3ccccc3)C2)CC1`, for which the melting point fell in the range of 172 to 174 °C.

Take `COc1cc(COc2nn(Cc3ccccc3)cc2C=O)ccc1OCc1nc(-c2ccco2)oc1C`: the melting point fell in the range of 139 to 140 °C.

For the compound `C=CCN1C(=O)NC(C)=C(C(=O)OC(C)C)C1c1cccc([N+](=O)[O-])c1` (configuration not stated), the melting point lay in the range of 172 to 174 °C.

Consider `COc1ccc2c(c1)CCC1C2CCC2(C)C(NCc3cccs3)CCC12` (configuration not stated), for which the melting point lay within 85.5 to 85.9 °C.

`O=C(Cl)c1ccc(Cl)cc1Sc1ccccc1`: the melting point fell in the range of 94 to 96 °C.

`COC(=O)c1ccc2cc(-c3ccc(C(=O)O)c(C45CC6CC(CC(C6)C4)C5)c3)ccc2c1` displayed a melting point of 239 to 240 °C.

Compound `CC1(C)CCC(C)(C)c2cc3oc(-c4ccc(C(=O)O)cc4)nc3cc21` yielded a melting point of 290 °C.

`COc1cc(Nc2c(C#N)cnc3cc(-c4ccc(CN(C)C)cc4)ccc23)c(Cl)cc1Cl`: the melting point lay within 187 to 189 °C.

Compound `O=C(NCCCCCCOC(=O)N1CCC2(CCCC2)CC1)OC1CCN(C(=O)Oc2ccc(-c3ccccc3)cc2)CC1` displayed a melting point of 110 to 111 °C.

Take `Oc1ccccc1C1OCCO1`: the melting point lay in the range of 67 to 70 °C.

Regarding `CCCCc1cc2cc(O)ccc2c(Oc2ccc(/C=C/C(=O)O)cc2)c1-c1ccccc1`, the melting point was in the range of 128 to 130 °C.

On to `O=Cc1ccc(C=Cc2ccc3ccccc3n2)cc1`, for which the melting point was 112 to 113 °C.

The compound `COC(=O)[C@H](Cc1ccc([N+](=O)[O-])cc1)NC(=O)c1ccccc1F` gave a melting point of 137 to 139 °C.

For `COc1cc(C2CCN(C(=O)CN(C)C)CC2)ccc1Nc1ncc2ccc(-c3ccccc3OC)n2n1`, the melting point fell in the range of 78 to 87 °C.

Turning to `Cc1nc(-c2ccc(Cl)cc2)nn1CCC=O`, the melting point is 108 to 109 °C.

Regarding `CCOC(=O)C(C)Oc1ccc(N(C)c2cc3ccc(Cl)cc3c(Cl)n2)cc1` (configuration not stated), the melting point was determined as 86 °C.

On to `Nc1c(N=O)c(=O)n(C2CC2)c(=O)n1C1CC1`, for which the melting point was 230 °C.

`Cc1ccc2c(c1)C1(COc3cc4c(cc31)OCO4)C(=O)N2` (configuration not stated): the melting point lay in the range of 269 to 271 °C.

`O=C(CC[C@H]1CC[C@H](Nc2ncc3ncnc(Nc4ccc(F)c(Cl)c4)c3n2)CC1)N1CCCC1`: the melting point was 187 to 192 °C.

In the case of `CN1CC(=O)Nc2ccsc2C1=O`, the melting point was in the range of 270 to 272 °C.

`CCN1C(=O)CCCc2c1ccc(Nc1ncc(Cl)c(N[C@@H]3CCC[C@H]3NS(C)(=O)=O)n1)c2OC` (relative stereo) yielded a melting point of 141 °C.

On to `COC(=O)c1ccc(C(=O)NC(C)C)cc1S(N)(=O)=O`, for which the melting point was in the range of 203 to 205 °C.

Turning to `Cc1oc(-c2ccccc2)nc1COc1ccc(COc2ccc3ccccc3c2C=O)cc1`, the melting point is 141 to 142 °C.

Consider `CC(=O)O[C@H]1C=C[C@@H](O)C1`, for which the melting point fell in the range of 48 to 49 °C.

In turn, `OCCCc1cn(-c2ccc(C(F)(F)F)cn2)nc1OCc1ccccc1` registered a melting point of 79 to 81 °C.

In turn, `C=CC[C@H]1C(=O)N(S(=O)(=O)c2ccc3ccccc3c2)[C@H]2CCN(C(=O)OCc3ccccc3)[C@H]12` (relative stereo) yielded a melting point of 158 to 160 °C.

In the case of `Oc1ccc(Cl)cc1C(O)(Cc1ccccc1)c1ccccc1` (configuration not stated), the melting point amounted to 128 °C.

Consider `CN(C)c1ccc(C(=O)CCCC2CCN(Cc3ccccc3)CC2)cc1`, for which the melting point lay within 83 to 85 °C.

`O=c1oc2c(Cl)cccc2cc1S(=O)(=O)Nc1ccc(Br)cc1` gave a melting point of 202 to 204 °C.

Regarding `NCC1CCN(c2nccc(C(N)=O)n2)CC1`, the melting point is 144 to 148 °C.

`OC1(C2CC2)CSC(=S)N1c1ccccn1` (configuration not stated) returned a melting point of 95 °C.

In turn, `CNC1=NS(=O)(=O)N=C(Oc2ccccc2[N+](=O)[O-])N1C(C)C` showed a melting point of 242 °C.

The compound `Nc1sc(-c2cc(F)cc(F)c2)c(CN(C2CCCCC2)C2CCCCC2)c1C(=O)c1ccc(Cl)cc1` came in with a melting point of 163 to 166 °C.

With `Cc1nc2cc(C#N)ccc2n1-c1ccc(C(=O)N(C)[C@@H]2CCNC2)cc1`, the melting point was 178 to 180 °C.

For `O=C(O)C(NS(=O)(=O)c1ccc(Cl)cc1)C1CCCCC1` (configuration not stated), the melting point is 120 to 128 °C.

The compound `CCOC(=O)C(=O)CC(=O)c1cn(Cc2ccc([N+](=O)[O-])cc2)c2ccccc2c1=O` gave a melting point of 175 to 176 °C.

Compound `O=C1NCCc2c[nH]c3cccc1c23` had a melting point of 234 °C.

`CON=C(C(=O)OC)c1csc(NC(=O)CCl)n1`: the melting point was 131 °C.

As to `O=C(C1CC2(CCN1)OCCO2)N1CCCC1` (configuration not stated), the melting point fell in the range of 72.5 to 74.5 °C.

In the case of `C[C@@H]1[C@H]2C(=O)N(Cc3ccccc3)C(=O)[C@H]2[C@@H](c2ccc(C(N)=NO)cc2)N1C` (racemic), the melting point is 194 to 196 °C.

Regarding `CCCCN1C[C@@H](C(=O)O)N(C(=O)[C@H](C)CSC(=O)c2ccccc2)C1=O`, the melting point came out at 119 °C.

For the compound `O=C(CSc1nc[nH]n1)c1ccccc1`, the melting point fell in the range of 119 to 120 °C.

Consider `CC(C)c1cc(O)n(C)n1`, for which the melting point fell in the range of 120 to 122 °C.

`CS(=O)(=O)Nc1cc(F)c(Cl)cc1I`: the melting point was 123 to 124 °C.

As for `COc1ccc(C(=O)NS(=O)(=O)C=Cc2ccc(Cl)c(Cl)c2)cc1OC`, the melting point lay in the range of 145 to 147 °C.

Turning to `c1ccc2c(c1)CN(NC1=NCCO1)C2`, the melting point is 220 to 223 °C.

`CC(C)N1CCC(COc2ccc(-c3ccc(=O)[nH]n3)cn2)CC1` showed a melting point of 188 to 191 °C.

`COC(=O)c1ccc(C#Cc2ccc(O)c(C34CC5CC(CC(C5)C3)C4)c2)s1` came in with a melting point of 207 to 208 °C.

As for `CN(Cc1ccccc1)Cc1c(-c2ccc(N)cc2)sc2c1c(=O)c(C(=O)c1ccccc1)cn2Cc1c(F)cccc1F`, the melting point lay in the range of 126 to 128 °C.

`C#Cc1cccc(Nc2ncnc3[nH]cc(-c4cccs4)c23)c1` came in with a melting point of 230 to 232 °C.

Consider `Cc1nc2n(C)c(C)cn2c(=O)c1CCBr`, for which the melting point turned out to be 125 °C.

In turn, `CN1CCN(S(=O)(=O)c2ccc(O)cc2)CC1` returned a melting point of 225 to 227 °C.

Turning to `NC(=O)c1c(Cl)c(-c2ccccc2)n2c1CN(C(=O)N1CCOCC1)CC2`, the melting point lay within 219 to 220 °C.

`CCOC(=O)c1cn(CC)c2nc(N3CCN(C=O)CC3)ncc2c1=O`: the melting point came out at 195 °C.

Compound `CCCc1ccc(NC(=O)c2cccnc2NCc2ccc(OC)nc2)cc1C(F)(F)F` returned a melting point of 51 to 61 °C.

`CN1CCC[C@H]1c1cnc(Cl)cc1C(O)(c1ccc(C(C)(C)C)cc1)c1ccc(C(C)(C)C)cc1`: the melting point was 226 to 230 °C.

For the compound `COc1cc2c(cc1OC)CCCCC(C(=O)O)=C2`, the melting point was 200 to 201 °C.

With `COc1ccc(NC(=O)N(Cc2ccccn2)C2CCCCCC2)c(NC(=O)c2cc(C(C)(C)C)c(O)c(C(C)(C)C)c2)c1`, the melting point fell in the range of 165 to 166 °C.

Compound `O=C1c2ccccc2C(=O)N1CCCCc1cc(-c2ccccn2)nc(-c2ccccn2)c1` registered a melting point of 128 °C.

`S=C(Nc1ccccc1)Nc1ncccc1OCc1ccccc1` yielded a melting point of 107 to 109 °C.

Take `O=C1CCC(=O)N1CC#CCN1CCCC1`: the melting point lay in the range of 93 to 94 °C.

Regarding `C#CCOc1ccc(-c2ccccc2NC(=O)C(NS(=O)(=O)CC)C(C)C)cc1OC` (configuration not stated), the melting point was in the range of 97 to 103 °C.
